The term IC50 denotes the concentration at which inhibition is half-maximal. The IC80 is the point of the concentration-response curve where the effect stands at 80%. For orientation: IC90 means the concentration at which the effect reaches the 90% level. Lower therefore signals an effect from little substance. In general, GI50 refers to the concentration giving 50% growth inhibition.

The results in this text go back to patent US10196357B2, “Biaryl compositions and methods for modulating a kinase cascade” (Athenex, Inc., priority 2007, dated 2019).

The target in test [1] is Fyn(h) (Homo sapiens, UniProt P06241). As to the kind of experiment: isolated kinase activity, Fyn. The class given is biochemical. Particulars: compound @ 10 μM. An excerpt: (§1) Table 8 illustrates percent activity of isolated kinases in the presence of the AstraZeneca ATP-competitive inhibitor (KX2-328, AZ-28) or KX2-391 relative to control (untreated) isolated kinases.
Sequence of Fyn(h) (P06241 whole entry): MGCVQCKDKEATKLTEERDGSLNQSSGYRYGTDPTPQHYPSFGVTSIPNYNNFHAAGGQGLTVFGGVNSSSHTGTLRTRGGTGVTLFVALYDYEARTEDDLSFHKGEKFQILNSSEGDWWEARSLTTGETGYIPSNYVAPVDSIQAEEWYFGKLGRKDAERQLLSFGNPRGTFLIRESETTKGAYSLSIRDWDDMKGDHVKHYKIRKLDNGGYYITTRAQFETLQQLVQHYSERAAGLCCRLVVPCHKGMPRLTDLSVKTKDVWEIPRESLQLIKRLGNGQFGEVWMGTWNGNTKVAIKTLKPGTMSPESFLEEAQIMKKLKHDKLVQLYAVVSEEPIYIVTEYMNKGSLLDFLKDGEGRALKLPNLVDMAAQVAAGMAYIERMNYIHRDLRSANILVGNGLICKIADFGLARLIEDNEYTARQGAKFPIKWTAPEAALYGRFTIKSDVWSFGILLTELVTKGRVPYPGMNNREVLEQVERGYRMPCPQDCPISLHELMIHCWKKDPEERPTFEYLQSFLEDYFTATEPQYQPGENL

Test [2] deals with Lck(h) (Homo sapiens, UniProt P06239). As to the kind of experiment: isolated kinase activity, Lck. The test is classed as biochemical. Particulars: compound @ 10 μM.
Sequence of Lck(h) (P06239 whole entry): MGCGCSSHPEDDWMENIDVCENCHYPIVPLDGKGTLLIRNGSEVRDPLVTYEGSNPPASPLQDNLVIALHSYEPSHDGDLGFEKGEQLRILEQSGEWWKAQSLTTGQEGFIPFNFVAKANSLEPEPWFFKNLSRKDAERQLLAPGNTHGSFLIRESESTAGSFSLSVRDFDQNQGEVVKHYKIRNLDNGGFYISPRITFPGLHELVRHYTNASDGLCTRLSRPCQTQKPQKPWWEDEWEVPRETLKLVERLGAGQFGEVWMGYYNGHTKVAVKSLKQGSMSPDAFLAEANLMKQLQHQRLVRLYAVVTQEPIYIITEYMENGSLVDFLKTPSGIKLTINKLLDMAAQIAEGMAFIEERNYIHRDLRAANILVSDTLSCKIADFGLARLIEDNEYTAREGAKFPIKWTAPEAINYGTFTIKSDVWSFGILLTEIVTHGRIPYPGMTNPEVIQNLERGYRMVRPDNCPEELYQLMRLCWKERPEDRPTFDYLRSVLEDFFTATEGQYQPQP
Text: as §1

In test [3] the target is isolated FAK (Homo sapiens, UniProt Q05397). As to the kind of experiment: titration against isolated FAK. Particulars: titration data. The class given is biochemical.
Sequence of isolated FAK (Q05397 whole entry): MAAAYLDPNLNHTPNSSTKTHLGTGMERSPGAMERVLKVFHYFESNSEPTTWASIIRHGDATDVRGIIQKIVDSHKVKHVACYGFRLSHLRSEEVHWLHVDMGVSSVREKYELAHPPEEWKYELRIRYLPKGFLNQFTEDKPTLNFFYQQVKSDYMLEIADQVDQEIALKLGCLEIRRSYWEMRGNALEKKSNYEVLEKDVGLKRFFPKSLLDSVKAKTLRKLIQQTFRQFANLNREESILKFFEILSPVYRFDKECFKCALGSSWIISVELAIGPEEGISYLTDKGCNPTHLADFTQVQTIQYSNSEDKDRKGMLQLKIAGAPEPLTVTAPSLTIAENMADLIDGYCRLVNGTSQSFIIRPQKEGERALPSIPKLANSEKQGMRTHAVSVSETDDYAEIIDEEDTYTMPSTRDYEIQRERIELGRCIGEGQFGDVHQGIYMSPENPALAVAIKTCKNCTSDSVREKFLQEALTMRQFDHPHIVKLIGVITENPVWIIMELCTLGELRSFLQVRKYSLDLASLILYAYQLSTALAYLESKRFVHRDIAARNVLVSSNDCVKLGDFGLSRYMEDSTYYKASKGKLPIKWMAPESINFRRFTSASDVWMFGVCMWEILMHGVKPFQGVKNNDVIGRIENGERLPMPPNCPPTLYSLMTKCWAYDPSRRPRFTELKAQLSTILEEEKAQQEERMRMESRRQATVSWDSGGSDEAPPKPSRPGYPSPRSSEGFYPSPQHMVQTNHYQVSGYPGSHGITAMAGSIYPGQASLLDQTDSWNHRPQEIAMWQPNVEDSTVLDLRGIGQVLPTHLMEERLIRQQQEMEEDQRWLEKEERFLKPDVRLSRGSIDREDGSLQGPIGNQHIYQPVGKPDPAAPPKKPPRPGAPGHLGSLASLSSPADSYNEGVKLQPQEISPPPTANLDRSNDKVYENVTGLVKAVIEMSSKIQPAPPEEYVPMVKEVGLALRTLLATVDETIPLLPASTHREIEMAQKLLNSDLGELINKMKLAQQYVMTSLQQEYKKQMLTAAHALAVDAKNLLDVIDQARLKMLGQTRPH
For test [4], the target named is IGF-1R(h) (Homo sapiens, UniProt P08069). Put plainly: isolated kinase activity, IGF-1R. Particulars: compound @ 10 μM. The class given is biochemical.
Sequence of IGF-1R(h) (P08069 31-1367): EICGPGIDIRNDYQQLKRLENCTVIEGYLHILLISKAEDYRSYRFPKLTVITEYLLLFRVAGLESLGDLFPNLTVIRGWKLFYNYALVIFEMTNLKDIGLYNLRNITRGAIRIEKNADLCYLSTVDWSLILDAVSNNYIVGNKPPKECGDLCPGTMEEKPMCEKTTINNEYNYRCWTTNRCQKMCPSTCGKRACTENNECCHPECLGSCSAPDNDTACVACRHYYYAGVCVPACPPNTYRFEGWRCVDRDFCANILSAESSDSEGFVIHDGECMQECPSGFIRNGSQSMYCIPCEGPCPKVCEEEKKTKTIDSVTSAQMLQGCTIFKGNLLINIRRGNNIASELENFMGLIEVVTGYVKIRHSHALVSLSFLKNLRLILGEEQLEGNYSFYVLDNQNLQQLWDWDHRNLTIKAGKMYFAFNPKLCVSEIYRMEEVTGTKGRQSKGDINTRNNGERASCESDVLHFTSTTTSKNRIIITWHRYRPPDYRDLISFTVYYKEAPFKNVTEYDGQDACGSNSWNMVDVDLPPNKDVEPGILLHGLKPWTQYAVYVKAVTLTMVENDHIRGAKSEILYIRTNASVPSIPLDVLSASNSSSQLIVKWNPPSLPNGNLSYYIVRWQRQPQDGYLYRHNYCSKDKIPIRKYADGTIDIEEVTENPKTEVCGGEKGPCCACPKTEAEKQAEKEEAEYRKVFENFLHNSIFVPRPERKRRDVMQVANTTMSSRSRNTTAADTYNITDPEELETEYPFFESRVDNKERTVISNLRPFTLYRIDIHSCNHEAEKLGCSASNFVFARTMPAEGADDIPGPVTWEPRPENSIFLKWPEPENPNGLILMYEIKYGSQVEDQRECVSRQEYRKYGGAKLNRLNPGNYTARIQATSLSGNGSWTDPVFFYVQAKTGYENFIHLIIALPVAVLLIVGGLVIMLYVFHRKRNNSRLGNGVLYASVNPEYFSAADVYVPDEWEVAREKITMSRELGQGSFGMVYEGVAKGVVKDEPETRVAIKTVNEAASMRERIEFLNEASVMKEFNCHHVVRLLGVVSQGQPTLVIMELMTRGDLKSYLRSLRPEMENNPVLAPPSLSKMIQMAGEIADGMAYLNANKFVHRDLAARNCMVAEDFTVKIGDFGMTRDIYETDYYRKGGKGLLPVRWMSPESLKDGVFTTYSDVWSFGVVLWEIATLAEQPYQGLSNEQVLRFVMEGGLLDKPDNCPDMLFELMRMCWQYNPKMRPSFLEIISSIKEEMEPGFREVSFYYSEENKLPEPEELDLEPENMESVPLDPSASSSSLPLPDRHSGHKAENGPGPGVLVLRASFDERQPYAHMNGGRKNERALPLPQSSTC
Text: as §1

For test [5], the target named is PDGFRβ(h) (Homo sapiens, UniProt P09619). Put plainly: isolated kinase activity, PDGFRβ. The class given is biochemical. The settings on record: compound @ 10 μM.
Sequence of PDGFRβ(h) (P09619 33-1106): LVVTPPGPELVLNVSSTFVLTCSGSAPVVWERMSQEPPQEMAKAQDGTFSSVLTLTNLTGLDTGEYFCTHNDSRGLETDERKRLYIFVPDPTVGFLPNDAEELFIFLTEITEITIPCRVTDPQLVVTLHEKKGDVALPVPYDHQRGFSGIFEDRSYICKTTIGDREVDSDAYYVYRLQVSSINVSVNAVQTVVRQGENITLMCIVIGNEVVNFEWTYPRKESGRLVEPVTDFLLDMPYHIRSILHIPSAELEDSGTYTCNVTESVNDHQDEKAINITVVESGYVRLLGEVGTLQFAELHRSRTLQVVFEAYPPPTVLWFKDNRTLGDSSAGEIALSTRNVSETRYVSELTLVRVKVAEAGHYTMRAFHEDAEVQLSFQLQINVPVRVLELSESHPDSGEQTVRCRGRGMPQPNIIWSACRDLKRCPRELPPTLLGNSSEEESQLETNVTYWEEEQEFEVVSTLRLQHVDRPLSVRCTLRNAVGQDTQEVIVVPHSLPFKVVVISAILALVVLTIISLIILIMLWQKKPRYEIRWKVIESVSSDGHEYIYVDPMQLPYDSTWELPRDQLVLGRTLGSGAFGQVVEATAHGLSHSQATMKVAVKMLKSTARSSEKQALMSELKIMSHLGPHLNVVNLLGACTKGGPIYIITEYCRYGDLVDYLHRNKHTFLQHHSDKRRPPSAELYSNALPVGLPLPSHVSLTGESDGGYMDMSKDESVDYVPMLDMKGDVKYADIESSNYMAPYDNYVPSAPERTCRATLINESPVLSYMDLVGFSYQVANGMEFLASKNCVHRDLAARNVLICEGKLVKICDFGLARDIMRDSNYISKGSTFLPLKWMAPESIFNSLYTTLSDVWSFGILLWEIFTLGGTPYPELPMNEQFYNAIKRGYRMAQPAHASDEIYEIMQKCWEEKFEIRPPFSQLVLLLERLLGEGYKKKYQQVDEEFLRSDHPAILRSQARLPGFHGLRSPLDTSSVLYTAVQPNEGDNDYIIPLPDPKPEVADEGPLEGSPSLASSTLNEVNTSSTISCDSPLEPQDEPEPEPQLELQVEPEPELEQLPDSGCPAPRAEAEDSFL
Text: as §1

Test [6] relates to H226. Put plainly: MTT growth inhibition, Dasatinib-resistant H226. The class given is cell-based, human. Particulars: H226, 8.0×10^3 cells/well, […] FBS, 78 Hr.
Procedure: (§2) Cell proliferation/growth inhibition was assessed using MTT colorimetric assay.
(§3) On Day 3, 10 μL MTT (5 mg/mL) was added to each well. Cells were then incubated in the presence of MTT for 4 hours at 37° C., appropriate CO2 conditions. After this incubation period, 90 μL 10% SDS(+HCl) was added to each well to lyse cells and solubilize formazan. Cells were then incubated overnight at 37° C., appropriate CO2 conditions.
(§4) The OD570 was measured using microplate reader. Growth inhibition curves and EC50/IC50 was determined using GraphPad Prism 4 statistical software.
For test [7], the system named is SK-N-MC. Put plainly: brain tumor cell growth inhibition, SK-N-MC. The test is classed as cell-based, Human. The settings on record: neuroepithelioma, read-out: IC50 (title: GI50).
Test [8] has as its system HCT116. As to the kind of experiment: MTT growth inhibition, Dasatinib-resistant HCT116. The test is classed as cell-based, human. The settings on record: HCT116, 8.0×10^3 cells/well, […] FBS, 78 Hr.
Procedure: as §2, §3, §4
For test [9], the system named is ACHN. Put plainly: renal tumor cell growth inhibition, ACHN. The test is classed as cell-based, Human. The settings on record: renal cell adenocarcinoma. The method, then:
These GI50s were determined using standard tumor growth inhibition assays, similar to those described in detail in this Example 7.

The subject of test [10] is ZAP70 Y319. As to the kind of experiment: whole cell phosphorylation, ZAP70. The test is classed as cell-based. Particulars: whole cells.
Test [11] relates to MOLT-4 (Adult lymphoblastic leukemia). As to the kind of experiment: growth inhibition, MOLT-4. The class given is cell-based, Human.
In test [12] the test system is Bcr/Abl &245. As to the kind of experiment: whole cell phosphorylation, Bcr/Abl. The settings on record: whole cells. The test is classed as cell-based.
Test [13] has as its system Ba/F3 + WT BCR-Abl. Put plainly: MTT growth inhibition, Ba/F3 + WT BCR-Abl. The test is classed as cell-based. Particulars: 96 hrs. From the text: Cultures of Ba/F3 cells were also transfected to express wild-type (WT) Bcr-Abl, E255K mutation of Bcr-Abl, or T315I mutation of Bcr-Abl and cultured in 96-well plates in complete media without IL-3. The Ba/F3 cell line is rendered Gleevec resistant when the mutation in the Bcr/Abl tyrosine kinase […] is present. […] All assays are in triplicate.

Test [14] relates to JAK2 Y1007/1008. As to the kind of experiment: whole cell phosphorylation, JAK2. The class given is cell-based. The settings on record: whole cells.
Test [15] relates to FAK Y397. As to the kind of experiment: FAK autophosphorylation in cells. The class given is cell-based. The settings on record: c-Src527F/NIH3T3 cells. The method, then:
HT29 (colon cancer) and c-Src527F/NIH-3T3 (Src transformed) cell lines were treated with KX2-391 or with AstraZeneca's ATP competitive Src inhibitor AZ28. AZ28 serves as a positive comparator to show what a validated Src inhibitor should do in these assays. After treatment with compound, cells were lysed, subjected to PAGE and probed with a battery of antibodies. […] In addition, off-target protein phosphorylation was also investigated. Further, induction of apoptosis was evaluated via Caspase 3 cleavage. Multiple doses of each compound were tested because the trends in response to increasing drug concentration are the most reliable indicator of activity.
The same range of multiples of the GI50 for AZ28 in these two cell lines was run as a comparison.
FAK Y397 is mainly a FAK autophosphorylation site and only a poor Src transphorylation site. AZ28 is […] a potent FAK inhibitor (see isolated enzyme data in Table 8). However, no inhibition of FAK autophosphorylation in c-Src527F/NIH3T3 cells is seen with KX-391.

The test system of test [16] is PC3-MM2 (Prostate). As to the kind of experiment: growth inhibition, PC3-MM2. The class given is cell-based, Human. Particulars: PC3-MM2 (Prostate) cells.
The subject of test [17] is Lyn Y416. As to the kind of experiment: whole cell phosphorylation, Lyn. The class given is cell-based. The settings on record: whole cells.
For test [18], the system named is protein tyrosine kinases (PTKs). As to the kind of experiment: selectivity for protein tyrosine kinases in whole cells. The class given is cell-based. The settings on record: as compared to Dasatinib. From the text: The compounds of the invention are selective for protein tyrosine kinases (PTKs). […] SYF cells are mouse fibroblasts that lack the Src kinase family members Src, Yes and Fyn.

The test system of test [19] is H460. Put plainly: MTT growth inhibition, Dasatinib-resistant H460. The settings on record: H460, 8.0×10^3 cells/well, […] FBS, 78 Hr.
Procedure: as §2, §3, §4

With `O=C(Cc1ccc(-c2ccc(OCCN3CCOCC3)cc2)cn1)NCc1ccccc1` [KX2-391], the “percent activity of isolated kinase relative to control” value was determined as 85% in [1], 109% in test [2], 101% in test [4] and 110% in test [5]. The IC50 in test [3] is above 48000 nM.

For `O=C(Cc1ccc(-c2ccc(OCCN3CCOCC3)cc2)cn1)NCc1ccccc1` [KXO1], the IC50 in test [6] was found to be 98 nM; in test [7] it was 5.8 nM; in [8], 31 nM; in test [19] it was 51 nM. Also, the 80% effect concentration (IC80) in test [6] stood at 277 nM; in test [8], 106 nM; in test [19], 105 nM. Further, the IC90 in [6] was 490 nM; in test [8] it was 195 nM; in [19], 162 nM. The GI50 in [9] came out at 33.2 nM; in test [11], 13 nM; in test [13] it was 85 nM; in test [16] it was 8.9 nM. The “phosphorylation of ZAP70 Y319” value in test [10] is reported as “not inhibited”. In addition, the “phosphorylation of Bcr/Abl &245” value in [12] is on record as “inhibited less potently”. Further, in test [14], the “phosphorylation of JAK2 Y1007/1008” value is on record as “not inhibited”. Moreover, the “FAK Y397 autophosphorylation” value in [15] is listed as “no inhibition”. Moreover, in test [17], the “phosphorylation of Lyn Y416” value is “inhibited less potently”. The “PTK selectivity in whole cells” value in test [18] is recorded as “very high PTK selectivity”.
